The source of these data is patent EP0812190B1 (priority 1993, dated 1995).

In one series the target is T1, MAO-B (Rattus norvegicus, UniProt P19643).
T1 sequence (P19643 1-520): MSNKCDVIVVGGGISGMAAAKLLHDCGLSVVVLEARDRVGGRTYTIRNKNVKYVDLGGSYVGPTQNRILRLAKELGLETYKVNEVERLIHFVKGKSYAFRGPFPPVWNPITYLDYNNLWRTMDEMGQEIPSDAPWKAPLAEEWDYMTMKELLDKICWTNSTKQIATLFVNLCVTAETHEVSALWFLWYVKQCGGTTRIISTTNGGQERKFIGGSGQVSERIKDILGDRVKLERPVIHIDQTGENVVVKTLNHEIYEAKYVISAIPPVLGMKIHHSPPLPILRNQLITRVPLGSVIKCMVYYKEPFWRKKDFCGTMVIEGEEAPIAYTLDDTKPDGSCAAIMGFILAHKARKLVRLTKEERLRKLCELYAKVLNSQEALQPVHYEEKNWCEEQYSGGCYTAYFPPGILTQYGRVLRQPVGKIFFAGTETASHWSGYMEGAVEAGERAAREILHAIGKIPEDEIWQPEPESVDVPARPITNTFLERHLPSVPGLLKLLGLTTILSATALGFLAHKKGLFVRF
Nature of the series: Rat brain MAO inhibition by propargylamines (Table IA), MAO-B. The series is classed as biochemical. Further details: in a rat brain preparation of MAO; from tissue; host or cells: rat brain preparation. The note with it: ratio between epimers, MAO-B.

A further series has as its target T2, MAO-A (Rattus norvegicus, UniProt P21396).
T2 sequence (P21396 1-526): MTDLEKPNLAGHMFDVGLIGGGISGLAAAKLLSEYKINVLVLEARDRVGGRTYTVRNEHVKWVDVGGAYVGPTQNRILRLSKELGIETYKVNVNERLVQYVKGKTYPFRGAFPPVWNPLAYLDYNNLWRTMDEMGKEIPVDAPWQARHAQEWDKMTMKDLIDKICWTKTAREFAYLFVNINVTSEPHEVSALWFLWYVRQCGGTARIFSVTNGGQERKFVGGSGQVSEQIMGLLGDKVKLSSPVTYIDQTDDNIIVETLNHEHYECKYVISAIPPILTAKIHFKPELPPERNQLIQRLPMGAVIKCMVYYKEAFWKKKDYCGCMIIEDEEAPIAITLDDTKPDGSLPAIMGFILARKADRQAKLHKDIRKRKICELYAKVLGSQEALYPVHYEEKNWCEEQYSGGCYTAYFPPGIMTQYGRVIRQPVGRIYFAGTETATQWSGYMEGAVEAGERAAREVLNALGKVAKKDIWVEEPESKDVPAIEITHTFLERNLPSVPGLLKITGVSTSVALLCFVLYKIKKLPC
Nature of the series: Rat brain MAO inhibition by propargylamines (Table IA), MAO-A. The series is classed as biochemical. Set-up: MAO activity determined in brain and liver using the general technique described above; from tissue; host or cells: brain and liver of treated rats. As to conditions: ratio between epimers.

Series [1] relates to maximal electroshock seizures. Description: animal or person. The note with it: for ED50: Mus musculus, ip. The source says:
(§1) The MES test is a classical model to indicate efficacy for partial and generalized seizures in humans. […] Some agents, however, that prevent seizure spread have the side effect of lowering seizure threshold. These agents therefore have both proconvulsive and anticonvulsive side effects.

Series [2] has as its system maximal electroshock seizures. The note with it: rats, p.o., 50 mg/kg.
Description: as §1

In series [3] the test system is minimal seizure threshold. The note with it: 141 mg/kg. As for the experimental part:
Timed Intravenous Infusion of Metrazol Test. This test measures the minimal seizure threshold of each animal. […] The time is then recorded (sec) from the start of infusion until the appearance of the first twitch (first focal seizure) and onset of clonus (clonic seizure).

A further series concerns neurological deficits. As to conditions: mice, 300 mg/kg.
The test system of series [4] is guinea-pig ileum.
Series [5] deals with amphetamine-induced stereotype behavior. As to conditions: control senescent rats; 0.5 mg/kg/day in drinking water; lateral head movements over 1 minute, 45 min after amphetamine 0.5 mg/kg s.c. Here is the method: The extent of this behavior is rated in accordance with the number of lateral head movements over a period of 1 minute.
Following that, amphetamine was injected s.c. at a dose of 0.5 mg/kg. 45 minutes later, lateral head movements were counted.

The test system of series [6] is guinea-pig ileum. Description: tissue or blood. The note with it: Cavia porcellus, read-out: Percent relaxation.
Series [7] has as its system MPTP-induced striatal dopamine depletions. Nature of the series: Suppression of MPTP-induced dopaminergic toxicity (striatal DA and DOPAC). The note with it: striatum. The series is classed as in vivo, mice. Here is the method:
Brains were removed and corpora striata dissected on an ice-cold glass plate and frozen on dry ice. Striatal tissues were homogenized in 0.1 M perchloric acid, and deproteinized aliquots containing dihydroxybenzylamine as an internal standard were assayed for dopamine and its major metabolite 3,4-dihydroxy-phenylacetic acid (DOPAC) using HPLC with electrochemical detection.

Series [8] concerns guinea-pig ileum. Description: tissue or blood. As to conditions: Cavia porcellus, read-out: Percent relaxation. This is another data set of the same source.
For another series, the system named is rabbit jejunum. Description: Tyramine potentiation in rabbit jejunum preparation.
Series [9] concerns minimal seizure threshold. The note with it: literature (Kupferberg); cited from earlier work.

Where a name gives a salt, the structure may show the parent alone. Read-outs that look alike come from different tables or passages of the source.

Description for neurological deficits: TD50 (median toxic dose). This test measures neurological deficits by the rotorod ataxia test. A mouse is placed on a knurled rod rotating at 6 rpm. It is then determined whether a mouse has the ability to maintain its equilibrium and stay on the rod for one minute in each of three trials.

For `C#CCNC1CCCc2ccccc21` (racemic) [Example 1-PAT, N-propargyl-1-aminotetralin], at MAO-B, the “RELATIVE POTENCY R/S B” value is 0.5. Also, at MAO-A, the “RELATIVE POTENCY R/S A” value turned out to be 4.
A word on the ED50: it is the midpoint of the dose-response relation. Higher therefore signals a need for a large dose. In the case of `C#CCN[C@@H]1CCc2ccccc21.Cl` [[R](+)PAI HCl, R-(+)-N-Propargyl-1-aminoindan hydrochloride], the 50% effective dose (ED50) in series [1] was found to be 79 mg/kg. In addition, the “animals protected from seizures” value in [2] is on record as “three out of four”.
Regarding `C#CCN[C@H]1CCc2ccccc21` [[S](-)PAI HCl, S-(-)-N-Propargyl-1-aminoindan hydrochloride, reference compound], in [1], the 50% effect level (ED50) was put at a dose of 57 mg/kg. In series [2], the “animals protected from seizures” value is reported as “Four out of four”.
For the molecule `C#CCN[C@H]1CCc2ccccc21` [[S](-)PAI Mesylate, reference compound], the “time to first focal seizure and onset of clonus” value (from here on “time”) in [3] is reported as “reduces the time”. In [1] (mice, 100 mg/kg), the mice protected result is recorded as “three out of three”. The acute neurotoxicity result in the series with neurological deficits was “four out of four mice showed neurotoxicity and spasticity”.
`C#CCN[C@H]1CCc2ccccc21` [[S](-)PAI, S-(-)-N-propargyl-1-aminoindan, reference compound]: the gram-tension in the series on guinea-pig ileum [4] (bethanechol 0.8 µM, 400 µM PAI HCl enantiomer) was found to be 0 gram-tension; in the series with guinea-pig ileum [4] (bethanechol 2 µM, 400 µM enantiomer), 0 gram-tension; with guinea-pig ileum [4] (bethanechol 4 µM, 400 µM enantiomer) it was 0 gram-tension; in the series with guinea-pig ileum [4] (bethanechol 20 µM, 400 µM enantiomer), 1.2 gram-tension; with guinea-pig ileum [4] (bethanechol 80 µM, 400 µM enantiomer) it was 2.6 gram-tension; in the series with guinea-pig ileum [4] (bethanechol 200 µM, 400 µM enantiomer), 2.6 gram-tension. Also, in series [5], the “Stereotype Behavior Rating” value is “totally inactive”. Also, in the series on guinea-pig ileum [6], the inhibition at 2 µM came out at 11%. For the same molecule, the inhibition at 30 µM in the series with guinea-pig ileum [6] came out at 33%. In the series with guinea-pig ileum [6], the inhibition at 40 µM was found to be 36%. The inhibition at 200 µM with guinea-pig ileum [6] worked out at 90%. The inhibition at 400 µM in the series with guinea-pig ileum [6] was determined as 98%. Moreover, in the series with guinea-pig ileum [6], the inhibition at 1000 µM was determined as 100%. Moreover, the DOPAC is 7.5±0.2 ng/mg protein in [7] (drug alone (PAI isomers […] i.p., deprenyl 5 mg/kg i.p.)) and 7.0±0.6 ng/mg protein in series [7] (pretreatment one hour before MPTP-HCl 30 mg/kg s.c., 5 days later). Also, the DA was 174.0±4.8 ng/mg protein in series [7] (drug alone (PAI isomers […] i.p., deprenyl 5 mg/kg i.p.), Mean±S.E.M.) and 53.4±6.9 ng/mg protein in series [7] (pretreatment one hour before MPTP-HCl 30 mg/kg s.c. (PAI isomers […] i.p., deprenyl 5 mg/kg i.p.), 5 days later). Besides, the inhibition at 60 µM in the series on guinea-pig ileum [8] was 60 to 70%. In addition, in the series on guinea-pig ileum [8], the inhibition at 300 µM turned out to be 100%. Also, the Percent relaxation is reported as 0% in the series on rabbit jejunum (PAI HCl enantiomer alone 0.2-4.0 µM), 0% with rabbit jejunum (tyramine 40 µM after 0.2 µM PAI HCl enantiomer), 35% in the series with rabbit jejunum (tyramine 40 µM after 2 µM PAI HCl enantiomer) and 33-50% with rabbit jejunum (tyramine 40 µM after 40 µM PAI HCl enantiomer).
Turning to `NC(=O)N1c2ccccc2C=Cc2ccccc21` [carbamazepine], the “time” value in series [9] is “do not show this effect”.
On to `O=C1NC(=O)C(c2ccccc2)(c2ccccc2)N1` [phenytoin], for which the “time” value in series [9] is “do not show this effect”.
With “N-Methyl-N-propargyl-1-aminotetralin [Example 2-MPAI]”, at MAO-B, the “RELATIVE POTENCY +/- B” value is reported as 0.2. In addition, on MAO-A, the “RELATIVE POTENCY +/- A” value is listed as 3.
